Experimental data published in patent US7932262B2 (Novartis AG, priority 2006, dated 2011).
Like-named read-outs stand apart in the source and are kept apart here.

What was measured:
[1] = molecular target: T1, PDK1 kinase (Homo sapiens, UniProt O15530); test: PDK1 Kinase Alpha Screen Assay; type: biochemical; settings: PDK1 Kinase Alpha Screen Assay; read-out: PDK1 IC50
T1 sequence (O15530 1-556): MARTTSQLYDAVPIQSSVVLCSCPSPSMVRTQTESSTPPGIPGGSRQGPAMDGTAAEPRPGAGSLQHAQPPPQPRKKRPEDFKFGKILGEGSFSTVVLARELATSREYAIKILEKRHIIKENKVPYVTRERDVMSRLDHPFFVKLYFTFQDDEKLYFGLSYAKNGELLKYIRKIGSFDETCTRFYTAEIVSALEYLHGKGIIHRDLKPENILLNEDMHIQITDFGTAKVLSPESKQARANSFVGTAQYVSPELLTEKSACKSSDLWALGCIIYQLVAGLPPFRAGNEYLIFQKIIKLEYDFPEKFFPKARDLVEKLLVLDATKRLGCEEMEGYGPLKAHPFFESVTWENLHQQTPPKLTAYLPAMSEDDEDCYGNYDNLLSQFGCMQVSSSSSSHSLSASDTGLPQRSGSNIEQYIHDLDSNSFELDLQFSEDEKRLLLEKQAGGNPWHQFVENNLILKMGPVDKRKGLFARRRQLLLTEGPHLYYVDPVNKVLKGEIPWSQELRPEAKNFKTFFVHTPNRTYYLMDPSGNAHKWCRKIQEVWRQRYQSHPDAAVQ
Summary of the method: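 PDK1, 10 uM ATP, 50 nM biotin-PDK1-4 peptide; 50 mM Tris pH 7.5, 10 mM MgCl2, 0.1% BSA, 0.01% Tween-20, 2 mM DTT, 2.5% DMSO; 3-18 h. EDTA stop; AlphaScreen, phospho-Ser/Thr antibody, overnight RT.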

[2] = system: PC-3 cells; test: Cell Proliferation Assay (Cell Titer Glo), PC-3 cell line; type: cell-based; settings: Homo sapiens, PC-3, Cell Proliferation Assay, read-out: CPEC50 PC3
Summary of the method: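 Cell Titer Glo luminescence, read after fresh medium replaced the dosing medium, gave viability of PC-3 cells plated at 1000 cells/well. Compounds, 1:3 serially diluted in DMSO at 500× and then in medium, were added after 3-5 h adhesion and incubated 3 days at 37° C.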

| IC50 [1] | EC50 ([2]; PC3) | EC50 ([2]; PC3 cells) | SMILES |
| --- | --- | --- | --- |
| < 5 µM | < 5 µM |  | CC(C)N1CCC(Oc2cc3nc(Nc4ccc(N5CCOCC5)cc4)ncc3cc2-c2nccs2)CC1 [Compound 619, 7-(1-isopropylpiperidin-4-yloxy)-N-(4-morpholinophenyl)-6-(thiazol-2-yl)quinazolin-2-amine] |
| < 5 µM | < 5 µM |  | CC(C)N1CCC(Oc2cc3nc(Nc4ccc(N5CCOCC5)cc4)ncc3cc2Br)CC1 [Compound 620, 6-bromo-7-(1-isopropylpiperidin-4-yloxy)-N-(4-morpholinophenyl)quinazolin-2-amine] |
| < 5 µM | < 5 µM |  | CC(C)N1CCC(Oc2cc3nc(Nc4ccc(N5CCOCC5)cc4)ncc3cc2-c2cn[nH]c2)CC1 [Compound 621, 7-(1-isopropylpiperidin-4-yloxy)-N-(4-morpholinophenyl)-6-(1H-pyrazol-4-yl)quinazolin-2-amine] |
| < 5 µM | < 5 µM |  | C#Cc1cc(-c2ccc(NCCN3CCCC3)nc2)c2nc(Nc3ccc(S(N)(=O)=O)cc3)ncc2c1 [Compound 634, 4-(6-ethynyl-8-(6-(2-(pyrrolidin-1-yl)ethylamino)pyridin-3-yl)quinazolin-2-ylamino)benzenesulfonamide] |
| < 5 µM | < 5 µM |  | C#Cc1cc2cnc(Nc3ccc(C(=O)NC(C)C)cc3)nc2cc1OC1CCN(C(C)C)CC1 [Compound 636, 4-(6-ethynyl-7-(1-isopropylpiperidin-4-yloxy)quinazolin-2-ylamino)-N-isopropylbenzamide] |
| < 5 µM | < 5 µM |  | CC(C)NC(=O)c1ccc(Nc2ncc3cc(C4CC4)c(OC4CCN(C(C)C)CC4)cc3n2)cc1 [Compound 637, 4-(6-cyclopropyl-7-(1-isoproylpiperidin-4-yloxy)quinazolin-2-ylamino)-N-isopropylbenzamide] |
| < 5 µM | < 5 µM |  | CC(C)NC(=O)c1ccc(Nc2ncc3cc(-c4nccs4)c(OC4CCN(C(C)C)CC4)cc3n2)cc1 [Compound 638, N-isopropyl-4-(7-(1-isoproylpiperidin-4-yloxy)-6-(thiazol-2-yl)quinazolin-2-ylamino)benzamide] |
| < 5 µM | < 5 µM |  | CC(C)NC(=O)c1ccc(Nc2ncc3cc(C#N)c(OC4CCN(C(C)C)CC4)cc3n2)cc1 [Compound 639] |
| < 5 µM | < 5 µM |  | N#Cc1cc2cnc(Nc3ccc(C(=O)N4CCOCC4)cc3)nc2cc1OC1CCNCC1 [Compound 640, 2-(4-(morpholine-4-carbonyl)phenylamino)-7-(piperidin-4-yloxy)quinazoline-6-carbonitrile] |
| < 5 µM | < 5 µM |  | C#Cc1cc2cnc(Nc3ccc(C(=O)N4CCOCC4)cc3)nc2cc1OC1CCNCC1 [Compound 641] |
| < 5 µM | < 5 µM |  | O=C(c1ccc(Nc2ncc3cc(C4CC4)c(OC4CCNCC4)cc3n2)cc1)N1CCOCC1 [Compound 642, (4-(6-cyclopropyl-7-(piperidin-4-yloxy)quinazolin-2-ylamino)phenyl)(morpholino)methanone] |
| < 5 µM | < 5 µM |  | c1cc(N2CCOCC2)ccc1Nc1ncc2cc(C3CC3)c(OC3CCNCC3)cc2n1 [Compound 643, 6-cyclopropyl-N-(4-morpholinophenyl)-7-(piperidin-4-yloxy)quinazolin-2-amine] |
| < 5 µM | < 5 µM |  | N#Cc1cc2cnc(Nc3ccc(N4CCOCC4)cc3)nc2cc1OC1CCNCC1 [Compound 644, 2-(4-morpholinophenylamino)-7-(piperidin-4-yloxy)quinazoline-6-carbonitrile] |
| < 5 µM | < 5 µM |  | Brc1cc2cnc(Nc3ccc(N4CCOCC4)cc3)nc2cc1OC1CCNCC1 [Compound 650, 6-bromo-N-(4-morpholinophenyl)-7-(piperidin-4-yloxy)quinazolin-2-amine] |
| < 5 µM | 5 to 10 µM |  | COc1ccc(Cl)c2cnc(Nc3cc(CN(C)C)cc(NC(C)=O)c3)nc12 [Compound 691] |
| < 5 µM | < 5 µM |  | O=C(c1ccc(Nc2ncc3c(Cl)ccc(OC4CCNCC4)c3n2)cc1Cl)N1CCOCC1 [Compound 692, (2-chloro-4-(5-chloro-8-(piperidin-4-yloxy)quinazolin-2-ylamino)phenyl) (morpholino)methanone] |

| IC50 [1] | EC50 ([2]; PC3) | EC50 ([2]; PC3 cells) | SMILES |
| --- | --- | --- | --- |
| < 5 µM | < 5 µM |  | O=C(c1ccc(Nc2ncc3c(Cl)ccc(NC4CCNCC4)c3n2)cc1)N1CCOCC1 [Compound 693, (4-(5-chloro-8-(piperidin-4-ylamino)quinazolin-2-ylamino)phenyl)(morpholino)methanone] |
| < 5 µM | < 5 µM |  | NC1CCN(c2ccc(Cl)c3cnc(Nc4ccc(C(=O)N5CCOCC5)cc4)nc23)CC1 [Compound 694, (4-(8-(4-aminopiperidin-1-yl)-5-chloroquinazolin-2-ylamino)phenyl)(morpholino)methanone] |
| < 5 µM | 5 to 10 µM |  | CC(C)N1CCC(Nc2ccc(Cl)c3cnc(Nc4ccc(C(=O)N5CCOCC5)cc4)nc23)CC1 [Compound 695, (4-(5-chloro-8-(1-isopropylpiperidin-4-ylamino)quinazolin-2-ylamino)phenyl)(morpholino)methanone] |
| < 5 µM | < 5 µM |  | C#Cc1cc(OC2CCN(C(C)C)CC2)c2nc(Nc3cccc(N4CCOCC4)c3)ncc2c1 [Compound 697, 6-ethynyl-8-(1-isopropylpiperidin-4-yloxy)-N-(3-morpholinophenyl)quinazolin-2-amine] |
| < 5 µM | < 5 µM |  | C#Cc1cc(OC2CCN(C(C)C)CC2)c2nc(Nc3ccc(N4CCOCC4)cc3)ncc2c1 [Compound 698, 6-ethynyl-8-(1-isopropylpiperidin-4-yloxy)-N-(4-morpholinophenyl)quinazolin-2-amine] |
| < 5 µM | < 5 µM |  | CC(C)N1CCC(Oc2cc(C#N)cc3cnc(Nc4ccc(N5CCOCC5)cc4)nc23)CC1 [Compound 699, 8-(1-isopropylpiperidin-4-yloxy)-2-(4-morpholinophenylamino)quinazoline-6-carbonitrile] |
| < 5 µM | < 5 µM |  | C#Cc1cc(OC2CCNCC2)c2nc(Nc3ccc(N4CCOCC4)cc3)ncc2c1 [Compound 700, 6-ethynyl-N-(4-morpholinophenyl)-8-(piperidin-4-yloxy)quinazolin-2-amine] |
| < 5 µM | < 5 µM |  | N#Cc1cc(OC2CCNCC2)c2nc(Nc3ccc(N4CCOCC4)cc3)ncc2c1 [Compound 701, 2-(4-morpholinophenylamino)-8-(piperidin-4-yloxy)quinazoline-6-carbonitrile] |
| < 5 µM | < 5 µM |  | c1csc(-c2cc(OC3CCNCC3)c3nc(Nc4ccc(N5CCOCC5)cc4)ncc3c2)n1 [Compound 702, N-(4-morpholinophenyl)-8-(piperidin-4-yloxy)-6-(thiazol-2-yl)quinazolin-2-amine] |
| < 5 µM | < 5 µM |  | c1cc(N2CCOCC2)ccc1Nc1ncc2cc(C3CC3)cc(OC3CCNCC3)c2n1 [Compound 703, 6-cyclopropyl-N-(4-mropholinophenyl)-8-(piperidin-4-yloxy)quinazolin-2-amine] |
| < 5 µM | < 5 µM |  | CC(C)N1CCC(Oc2cc(C3CC3)cc3cnc(Nc4ccc(N5CCOCC5)cc4)nc23)CC1 [Compound 704, 6-cyclopropyl-8-(1-isopropylpiperidin-4-yloxy)-N-(4-morpholinophenyl)quinazolin-2-amine] |
| < 5 µM | < 5 µM |  | C#Cc1cc(OC2CCNCC2)c2nc(Nc3ccc(C(=O)N4CCOCC4)cc3)ncc2c1 [Compound 705, (4-(6-ethynyl-8-(piperidin-4-yloxy)quinazolin-2-ylamino)phenyl)(morpholino)methanone] |
| < 5 µM | < 5 µM |  | c1csc(-c2cc(OC3CNC3)c3nc(Nc4ccc(N5CCOCC5)cc4)ncc3c2)n1 [Compound 706, 8-(azetidin-3-yloxy)-N-(4-morpholinophenyl)-6-(thiazol-2-yl)quinazolin-2-amine] |
| < 5 µM |  | < 5 µM | C#Cc1cc(OC2CNC2)c2nc(Nc3ccc(N4CCOCC4)cc3)ncc2c1 [Compound 707, 8-(azetidin-3-yloxy)-6-ethynyl-N-(4-morpholinophenyl)quinazolin-2-amine] |
| < 5 µM |  | < 5 µM | C#Cc1cc(OC2CCNCC2)c2nc(Nc3ccc(C(=O)N4CCOCC4)cc3)ncc2c1Cl [Compound 708, (4-(5-chloro-6-ethynyl-8-(piperidin-4-yloxy)quinazolin-2-ylamino)phenyl)(morpholino)methanone] |

| SMILES | IC50 [1] | EC50 ([2]; PC3) | EC50 ([2]; PC3 cells) |
| --- | --- | --- | --- |
| C#Cc1cc(OC2CN3CCC2CC3)c2nc(Nc3ccc(S(N)(=O)=O)cc3)ncc2c1 (stereo not shown) [Compound 635, 4-(6-ethynyl-8-(quinuclidin-3-yloxy)quinazolin-2-ylamino)benzenesulfonamide] | < 5 µM | < 5 µM |  |
